What all share (type): cell-based
The target in assay [1] is T1, F876L mutant Androgen Receptor (AR-F876L) (Homo sapiens (Human), UniProt P10275, F877L). Briefly: LNCaP-AR-F876L ANT reporter assay (antagonist mode). The note with it: for Emax: read-out: LNCaP-AR-F876L ANT MAX % Inh; for IC50: read-out: LNCaP-AR-F876L ANT pIC50 (converted). On the technique in general: Reporter assays use an easily measured gene product as a stand-in for the process of interest.

For assay [2], the target named is T1, F876L mutant Androgen Receptor (AR-F876L). The assay can be described thus: LNCaP-AR-F876L AG reporter assay (agonist mode). The note with it: for Emax: read-out: LNCaP-AR-F876L AG MAX % Stim; for EC50: read-out: LNCaP-AR-F876L AG pEC50 (converted).
Assay [3] concerns the target T2, wild-type Androgen Receptor (AR-wt) (Homo sapiens (Human), UniProt P10275). Briefly: LNCaP-AR-wt AG reporter assay (agonist mode). The note with it: for Emax: read-out: LNCaP-AR-wt AG MAX % Stim; for EC50: read-out: LNCaP-AR-wt AG pEC50 (converted).
The target in assay [4] is T2, wild-type Androgen Receptor (AR-wt). Briefly: LNCaP-AR-wt ANT reporter assay (antagonist mode). The note with it: for Emax: read-out: LNCaP-AR-wt ANT MAX % Inh; for IC50: read-out: LNCaP-AR-wt ANT pIC50 (converted).
[5] abbreviates: antagonist mode, maximum % inhibition of R1881 control response over tested concentration range.
Where [6] appears, read: antagonist mode, pIC50 = −Log10(IC50 in Molar).
[7] abbreviates: agonist mode, maximum % stimulation over tested concentration range.
Where [8] appears, read: agonist mode, pEC50 = −Log10(EC50 in Molar).
Setting [9] is: maximum % inhibition of R1881 control response over the tested concentration range.
Where [10] appears, read: maximum % stimulation (agonist response) over the tested concentration range.

Where only a bound is given, the exact number is not on record here.

T2 sequence (P10275 whole entry): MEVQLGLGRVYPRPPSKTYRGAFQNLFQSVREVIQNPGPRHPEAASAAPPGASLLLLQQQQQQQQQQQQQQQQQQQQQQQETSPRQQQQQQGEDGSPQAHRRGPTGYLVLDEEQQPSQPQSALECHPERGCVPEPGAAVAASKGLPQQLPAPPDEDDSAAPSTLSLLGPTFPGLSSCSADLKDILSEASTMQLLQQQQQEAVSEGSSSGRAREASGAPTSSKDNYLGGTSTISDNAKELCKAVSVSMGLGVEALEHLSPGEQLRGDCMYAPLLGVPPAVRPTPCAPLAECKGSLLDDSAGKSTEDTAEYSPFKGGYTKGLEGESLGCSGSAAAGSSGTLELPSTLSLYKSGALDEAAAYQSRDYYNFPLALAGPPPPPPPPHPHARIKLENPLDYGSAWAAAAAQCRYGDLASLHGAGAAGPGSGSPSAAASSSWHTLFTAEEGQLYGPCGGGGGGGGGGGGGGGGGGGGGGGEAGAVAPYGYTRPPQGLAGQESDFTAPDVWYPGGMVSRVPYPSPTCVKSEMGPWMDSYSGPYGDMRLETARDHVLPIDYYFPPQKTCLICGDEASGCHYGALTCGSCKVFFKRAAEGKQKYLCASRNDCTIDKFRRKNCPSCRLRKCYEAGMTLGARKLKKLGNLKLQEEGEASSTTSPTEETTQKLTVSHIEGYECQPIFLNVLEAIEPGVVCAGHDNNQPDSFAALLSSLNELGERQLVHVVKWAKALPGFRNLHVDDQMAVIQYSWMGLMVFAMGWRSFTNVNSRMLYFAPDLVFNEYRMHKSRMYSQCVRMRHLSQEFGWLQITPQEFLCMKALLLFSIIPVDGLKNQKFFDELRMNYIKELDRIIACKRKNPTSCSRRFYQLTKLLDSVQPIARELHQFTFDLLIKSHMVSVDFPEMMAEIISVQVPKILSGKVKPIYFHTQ
T1 sequence (P10275 whole entry F877L): as the sequence (P10275 whole entry) above, with F877L counted along it

Regarding `N#Cc1ncc(N2C(=O)C3(CCC3)N(c3ccc(CN4CCNC(=O)C4)cc3)C2=S)cc1C(F)(F)F` [Cpd 228, 5-[5-oxo-8-[4-[(3-oxopiperazin-1-yl)methyl]phenyl]-7-thioxo-6,8-diazaspiro[3.4]octan-6-yl]-3-(trifluoromethyl)pyridine-2-carbonitrile], the Emax in assay [1] (setting [5]) was 101%; in assay [2] (setting [7]), 0.1%; in assay [3] (setting [7]) it was -0.2%; in assay [4] (setting [5]), 102%. Further, the IC50 in assay [1] (setting [6]) was 115 nM; in assay [4] (setting [6]), 209 nM. Moreover, the EC50 in assay [2] (setting [8]) and in assay [3] (setting [8]) was greater than 15.1 µM each time.
Consider `CN1CCC(CN(C)C(=O)c2ccc(N3C(=S)N(c4cnc(C#N)c(C(F)(F)F)c4)C(=O)C34CCC4)cc2)CC1` [Cpd 209, 4-[6-[6-cyano-5-(trifluoromethyl)-3-pyridyl]-5-oxo-7-thioxo-6,8-diazaspiro[3.4]octan-8-yl]-N-methyl-N-[(1-methyl-4-piperidyl)methyl]benzamide], for which the Emax was 100% in assay [1] (setting [5]), 0% in assay [2] (setting [7]), -0.1% in assay [3] (setting [7]) and 99% in assay [4] (setting [5]). Besides, the results for the IC50 in assay [1] (setting [6]) and in assay [4] (setting [6]) were 417 nM and 457 nM, respectively. Further, the EC50 in assay [2] (setting [8]) and in assay [3] (setting [8]) was greater than 15.1 µM in each case.
With `CN(C(=O)OC(C)(C)C)C1(COc2ccc(N3C(=S)N(c4cnc(C#N)c(C(F)(F)F)c4)C(=O)C34CCC4)cc2)COC1` [Cpd 196, tert-butyl N-[3-[[4-[6-[6-cyano-5-(trifluoromethyl)-3-pyridyl]-5-oxo-7-thioxo-6,8-diazaspiro[3.4]octan-8-yl]phenoxy]methyl]oxetan-3-yl]-N-methyl-carbamate], the Emax in assay [1] (setting [5]) is 99.9%; in assay [2] (setting [7]), 0.2%; in assay [3] (setting [7]) it was -0.2%; in assay [4] (setting [5]), 100%. The results for the IC50 in assay [1] (setting [6]) and in assay [4] (setting [6]) were 437 nM and 589 nM, respectively. Further, the EC50 in assay [2] (setting [8]) and in assay [3] (setting [8]) was greater than 15.1 µM in each case.
As for `CN1CCC(Oc2ccc(N3C(=S)N(c4cnc(C#N)c(Cl)c4)C(=O)C34CCC4)cn2)CC1` [Cpd 26], the IC50 in assay [1] (setting [6]) was 69.2 nM; in assay [4] (setting [6]), 55 nM. For the same molecule, the Emax worked out at 100% in assay [1] (setting [9]), 0.5% in assay [2] (setting [10]), 0.4% in assay [3] (setting [10]) and 101% in assay [4] (setting [9]). For the same molecule, the EC50 in assay [2] (setting [8]) and in assay [3] (setting [8]) was greater than 15.1 µM in each case.
Take `N#Cc1ncc(N2C(=O)C3(CCC3)N(c3ccc(C4CC5CCC(C4)N5)cc3)C2=S)cc1C(F)(F)F` (stereo not shown) [Cpd 123, 5-(5-(4-(8-azabicyclo[3.2.1]octan-3-yl)phenyl)-8-oxo-6-thioxo-5,7-diazaspiro[3.4]octan-7-yl)-3-(trifluoromethyl)picolinonitrile]: in assay [1] (setting [6]), the “LNCaP-AR-F876L ANT pIC50” value turned out to be 6.03. Also, the Emax in assay [1] (setting [9]) was 102%; in assay [2] (setting [10]), 0.2%; in assay [3] (setting [10]) it was 0.3%; in assay [4] (setting [9]), 103%. Besides, in assay [2] (setting [8]), the “LNCaP-AR-F876L AG pEC50” value is listed as less than 4.82. Moreover, in assay [3] (setting [8]), the “LNCaP-AR-wt AG pEC50” value is given as less than 4.82. Further, in assay [4] (setting [6]), the “LNCaP-AR-wt ANT pIC50” value came to 5.64.
Turning to `CN1CC2CC1CC2Oc1ccc(N2C(=S)N(c3cnc(C#N)c(C(F)(F)F)c3)C(=O)C23CCC3)cn1` [Cpd 177, (R,S)-5-[8-[6-[(2-methyl-2-azabicyclo[2.2.1]heptan-5-yl)oxy]-3-pyridyl]-5-oxo-7-thioxo-6,8-diazaspiro[3.4]octan-6-yl]-3-(trifluoromethyl)pyridine-2-carbonitrile], the IC50 was 457 nM in assay [1] (setting [6]) and 525 nM in assay [4] (setting [6]). For the same molecule, the Emax in assay [1] (setting [9]) was 100%; in assay [2] (setting [10]), 0.4%; in assay [3] (setting [10]) it was 0.2%; in assay [4] (setting [9]) it was 102%. Moreover, the EC50 in assay [2] (setting [8]) and in assay [3] (setting [8]) was greater than 15.1 µM in each case.
For `N#Cc1ncc(N2C(=O)C3(CCC3)N(c3ccc(OCC4(N)COC4)cc3)C2=S)cc1C(F)(F)F` [Cpd 145, 5-[8-[4-[(3-aminooxetan-3-yl)methoxy]phenyl]-5-oxo-7-thioxo-6,8-diazaspiro[3.4]octan-6-yl]-3-(trifluoromethyl)pyridine-2-carbonitrile], the IC50 in assay [1] (setting [6]) is 302 nM; in assay [4] (setting [6]), 178 nM. Moreover, the Emax was determined as 98.8% in assay [1] (setting [9]), 1.8% in assay [2] (setting [10]), 0.5% in assay [3] (setting [10]) and 101% in assay [4] (setting [9]). For the same molecule, the EC50 in assay [2] (setting [8]) and in assay [3] (setting [8]) was greater than 15.1 µM each time.
For the molecule `N#Cc1ncc(N2C(=O)C3(CCC3)N(c3ccc(O)nc3)C2=S)cc1Cl` [Cpd 45, 3-chloro-5-[8-(6-hydroxy-3-pyridyl)-5-oxo-7-thioxo-6,8-diazaspiro[3.4]octan-6-yl]pyridine-2-carbonitrile], the results for the IC50 in assay [1] (setting [6]) and in assay [4] (setting [6]) were 1260 nM and 3020 nM, respectively. The Emax was 99.2% in assay [1] (setting [9]), 0% in assay [2] (setting [10]), -0.3% in assay [3] (setting [10]) and 92.9% in assay [4] (setting [9]). In addition, the EC50 in assay [2] (setting [8]) and in assay [3] (setting [8]) was greater than 15.1 µM each time.
Regarding `Cc1cc(N2C(=O)C3(CCC3)N(c3ccc(CC4CCN(C)CC4)cc3)C2=S)cnc1C#N` [Cpd 238, 3-methyl-5-[8-[4-[(1-methyl-4-piperidyl)methyl]phenyl]-5-oxo-7-thioxo-6,8-diazaspiro[3.4]octan-6-yl]pyridine-2-carbonitrile], the Emax in assay [1] (setting [5]) worked out at 101%; in assay [2] (setting [7]), 0.1%; in assay [3] (setting [7]), 0%; in assay [4] (setting [5]) it was 101%. In addition, the figures for the IC50 in assay [1] (setting [6]) and in assay [4] (setting [6]) were 813 nM and 1410 nM, respectively. Further, the EC50 in assay [2] (setting [8]) and in assay [3] (setting [8]) was greater than 15.1 µM throughout.
For `COCCn1cc2ccc(N3C(=S)N(c4cnc(C#N)c(C(F)(F)F)c4)C(=O)C34CCC4)cc2n1` [Cpd 179, 5-[8-[2-(2-methoxyethyl)indazol-6-yl]-5-oxo-7-thioxo-6,8-diazaspiro[3.4]octan-6-yl]-3-(trifluoromethyl)pyridine-2-carbonitrile], the results for the IC50 in assay [1] (setting [6]) and in assay [4] (setting [6]) were 468 nM and 1230 nM, respectively. Moreover, the Emax in assay [1] (setting [9]) was 101%; in assay [2] (setting [10]), -0.2%; in assay [3] (setting [10]), -0.2%; in assay [4] (setting [9]), 100%. Also, the EC50 in assay [2] (setting [8]) and in assay [3] (setting [8]) was greater than 15.1 µM each time.
With `CN1CCC(NC(=O)c2ccc(N3C(=S)N(c4cnc(C#N)c(C(F)(F)F)c4)C(=O)C34CCC4)cc2)C1` (stereo not shown) [Cpd 192, 4-[6-[6-cyano-5-(trifluoromethyl)-3-pyridyl]-5-oxo-7-thioxo-6,8-diazaspiro[3.4]octan-8-yl]-N-(1-methylpyrrolidin-3-yl)benzamide], the Emax in assay [1] (setting [5]) is 102%; in assay [2] (setting [7]) it was 0.1%; in assay [3] (setting [7]) it was 0%; in assay [4] (setting [5]), 101%. Further, the values for the IC50 in assay [1] (setting [6]) and in assay [4] (setting [6]) were 692 nM and 1580 nM, respectively. Further, the EC50 in assay [2] (setting [8]) and in assay [3] (setting [8]) was greater than 15.1 µM in each case.
As for `CN1CCC(C)(Oc2ccc(N3C(=S)N(c4cnc(C#N)c(C(F)(F)F)c4)C(=O)C34CCC4)cn2)CC1` [Cpd 210, 5-[8-[6-[(1,4-dimethyl-4-piperidyl)oxy]-3-pyridyl]-5-oxo-7-thioxo-6,8-diazaspiro[3.4]octan-6-yl]-3-(trifluoromethyl)pyridine-2-carbonitrile], the Emax in assay [1] (setting [5]) was 100%; in assay [2] (setting [7]), 0.1%; in assay [3] (setting [7]), 0.1%; in assay [4] (setting [5]), 102%. The IC50 is 1100 nM in assay [1] (setting [6]) and 1170 nM in assay [4] (setting [6]). Besides, the EC50 in assay [2] (setting [8]) and in assay [3] (setting [8]) was greater than 15.1 µM each time.
`Cc1cc(N2C(=O)C3(CCC3)N(c3ccc(OC4CCSCC4)nc3)C2=S)cnc1C#N` [Cpd 21, 3-methyl-5-[5-oxo-8-(6-thian-4-yloxy(3-pyridyl))-7-thioxo-6,8-diazaspiro[3.4]oct-6-yl]pyridine-2-carbonitrile]: the IC50 in assay [1] (setting [6]) is 309 nM; in assay [4] (setting [6]), 501 nM. In addition, the Emax was 69.9% in assay [1] (setting [9]), 0.3% in assay [2] (setting [10]), -0.1% in assay [3] (setting [10]) and 80.6% in assay [4] (setting [9]). Besides, the EC50 in assay [2] (setting [8]) and in assay [3] (setting [8]) was greater than 15.1 µM each time.
Regarding `Cc1cc(N2C(=O)C3(CCC3)N(c3ccc(OCCCN(C)C)nc3)C2=S)cnc1C#N` [Cpd 27, 5-[8-[6-[3-(dimethylamino)propoxy]-3-pyridyl]-5-oxo-7-thioxo-6,8-diazaspiro[3.4]octan-6-yl]-3-methyl-pyridine-2-carbonitrile], the IC50 in assay [1] (setting [6]) was 107 nM; in assay [4] (setting [6]) it was 219 nM. The Emax is 101% in assay [1] (setting [9]), -0.1% in assay [2] (setting [10]), 0% in assay [3] (setting [10]) and 101% in assay [4] (setting [9]). The EC50 in assay [2] (setting [8]) and in assay [3] (setting [8]) was greater than 15.1 µM each time.

The values are drawn from patent US10981926B2 (Janssen Pharmaceutica NV, priority 2016, dated 2021).
